Results on 37 compounds are retold here after ChEMBL document CHEMBL1926617, “Antifungal activities of novel non-azole molecules against S. cerevisiae and C. albicans” (Eur J Med Chem, 2012).

In brackets after ≈: the same amount, converted by molar mass.

For this assay, the system named is Saccharomyces cerevisiae. The experiment in a line: Antifungal activity against Saccharomyces cerevisiae ATCC 24657 assessed as growth inhibition after 24 to 48 hrs by agar plate bioassay. In kind it is functional.

Broadly, the MIC is the lowest concentration that inhibits growth of the organism. Usually MIC50 stands for the lowest concentration that inhibits either 50% of growth or 50% of the strains tested, depending on the study.

In the case of `CC1=C(C#N)C(c2sc3ccccc3c2C)C2=C(CCCC2=O)N1` (centres undefined), the minimum inhibitory concentration (MIC) is greater than 250 µM and the MIC50 amounted to 118 µM (≈ 39.5 µg/mL). In the case of `COC(C)(C)CCSc1nc2ccc(NC(=O)CCCC(=O)NCc3ccco3)cc2s1`, the MIC was greater than 200 µM. Regarding `CN(CCC#N)c1ccc(/C=N/NC(=O)N/N=C/c2ccc(N(C)CCC#N)cc2)cc1`, the MIC was greater than 200 µM. Consider `Cc1nc(SCc2c(F)cccc2Cl)c(C#N)c(C)c1Cc1c(F)cccc1Cl`, for which the MIC was greater than 200 µM. Still for that read-out and setting: next, `N#C/C(=C\c1ccc(C(F)(F)F)cc1)c1ccc(OCc2c(F)cccc2Cl)cc1`: greater than 200 µM; `Cc1n[nH]c(=O)c(N)c1-c1cc(-c2ccsc2)[nH]n1`: greater than 200 µM; `CC[C@@H]1C(=O)OC[C@@H]1Cc1cncn1C` [PILOCARPINE]: greater than 200 µM. For the compound `O=C(c1ccncc1)c1ccc(Cl)cc1`, the MIC is greater than 200 µM and the MIC50 was found to be 100 µM (≈ 21.8 µg/mL).

Consider `COc1ccc(C(=O)CCC(=O)N2CCC(c3nc(C(=O)Nc4ccc(O)c(C)c4C)cs3)CC2)cc1`, for which the MIC was greater than 200 µM.

With `N#CCN1CCN(c2nc3ccc(Cl)cc3s2)CC1`, the MIC was greater than 200 µM and the MIC50 came to 27 µM (≈ 7.91 µg/mL). For the compound `COc1ccc(CC2c3cc(OC)c(OC)cc3CCN2C=C(C#N)C#N)cc1OC` (centres undefined), the MIC was greater than 200 µM.

Consider `CN(CCC#N)c1ccc(C=C(C#N)C#N)cc1`, for which the minimal inhibitory concentration (MIC) is greater than 200 µM. With `FC(F)(F)Oc1ccc(C2c3ccsc3CCN2Cc2ccc3c(c2)CCO3)cc1` (centres undefined), the MIC50 was determined as 120 µM (≈ 51.8 µg/mL). Take `Cc1ccc(Cc2cc(C)ncc2C)c(C)c1`: the minimal inhibitory concentration (MIC) came to 100 µM (≈ 22.5 µg/mL) and the MIC50 was 14 µM (≈ 3.15 µg/mL). For the compound `Cc1n[nH]c(=O)c2noc(/C=C/c3ccsc3)c12`, the MIC is greater than 200 µM.

Regarding `CN(CCC#N)c1ccc(/C=C2\CC/C(=C\c3ccc(N(C)CCC#N)cc3)C2=O)cc1`, the MIC is greater than 200 µM.

For the compound `O=C(/C=C\c1ccco1)NCC(=O)N1CCC(c2nccn2CCc2ccsc2)CC1`, the MIC was greater than 200 µM. On the same count and under the same terms, the value for `CSc1sc(C(=O)N2CCC3(CCN(C(=O)CNC(=O)c4ccco4)CC3)C2)c2c1C(=O)CCC2` was greater than 200 µM. For `c1ccc(Cc2ccncc2)cc1`, the minimum inhibitory concentration (MIC) was greater than 200 µM and the MIC50 is 100 µM (≈ 16.9 µg/mL). In the case of `Cc1ccc(C(=O)N(C)Cc2ccco2)c(C2CCN(C(=O)/C=C/c3ccc4c(c3)OCO4)CC2)n1`, the MIC was greater than 200 µM. Still for that read-out and setting: next, `CCOc1ccc(/N=C/c2ccc(N(C)CCC#N)cc2)cc1`: greater than 200 µM; `O=C(CC(Sc1ccc2ccccc2c1)c1ccsc1)c1ccc(Cl)cc1` (centres undefined): greater than 200 µM. The same measure, in the same setting: the value for `CN(CCC#N)c1ccc(/C=N/c2ccc(C(=O)O)cc2)cc1` was greater than 200 µM; that for `CCOC(=O)/C(C#N)=C/c1ccc(N(C)CCC#N)cc1` was greater than 200 µM. With `C=CCn1c(SCC(=O)c2ccccc2)nc2sc3c(c2c1=O)CCC(C)C3` (centres undefined), the minimal inhibitory concentration (MIC) was greater than 200 µM. Consider `O=[N+]([O-])c1ccc(Cc2ccncc2)cc1`, for which the MIC was greater than 200 µM and the MIC50 came out at 120 µM (≈ 25.7 µg/mL).

In the case of `C=CCSc1ncccc1C1=NN(CC(=O)N(CCC(=O)OCC)Cc2ccco2)C(=O)C1`, the MIC was greater than 200 µM. On the same count and under the same terms, the value for `Cc1ccc(C(=O)N(C)Cc2ccco2)c(C2CCN(C(=O)c3cc(C)c(C)o3)CC2)n1` was greater than 200 µM; that for `N#CC(C#N)=CNc1ccc2oc3ncccc3c(=O)c2c1` was greater than 200 µM.

With `C=CCOc1ccc(/C=C2\CCc3cc(OC)ccc3C2=O)cc1`, the MIC is greater than 200 µM.

`COC(=O)c1cscc1NC(=O)CC(CC(=O)O)c1ccccc1` (centres undefined): the MIC is greater than 200 µM. For `COC(=O)c1scc(C)c1NC(=O)c1ccc(C(C)(C)C)cc1`, the MIC is greater than 200 µM. As for `COc1nc2c(c(-c3ccc[nH]3)c1C#N)Cc1ccccc1-2`, the minimal inhibitory concentration (MIC) is greater than 200 µM.

As for `Cc1ccc(C(=O)CC(Sc2ccc3ccccc3c2)c2ccsc2)cc1` (centres undefined), the MIC was greater than 150 µM. `Clc1ccc(Cc2ccncc2)cc1`: the minimum inhibitory concentration (MIC) was 150 µM (≈ 30.6 µg/mL) and the MIC50 came out at 18 µM (≈ 3.67 µg/mL). With `COc1cc(C(=O)N(CCC#N)C2CC(C)CC(C)(C)C2)cc(OC)c1OC` (centres undefined), the MIC was greater than 200 µM.

Regarding `Cc1ccc(C(=O)N(C)Cc2ccco2)c(C2CCN(C(=O)c3cc(O)nc4ccccc34)CC2)n1`, the MIC was greater than 200 µM.
